Source: patent publication US8716303B2, “N-(hetero)aryl-pyrrolidine derivatives of pyrazol-4-yl-pyrrolo[2,3-d]pyrimidines and pyrrol-3-yl-pyrrolo[2,3-d]pyrimidines as janus kinase inhibitors” (Incyte Corporation, priority 2009, dated 2014)
pIC50: −log10 of the molar value. Counter-ions that a name gives are not always drawn.

Tests used:
[1] = target: T1, Jak2 (a.a. 828-1132) (Homo sapiens, UniProt O60674); experiment: In vitro JAK kinase assay (HTRF, phosphorylation of a biotinylated peptide), JAK2, reported as JAK2/JAK1 ratio; format: biochemical
T1 construct: Jak2 (a.a. 828-1132); His tag (N); made in house; host or cells: insect cells (baculovirus)
T1 sequence (O60674 828-1132): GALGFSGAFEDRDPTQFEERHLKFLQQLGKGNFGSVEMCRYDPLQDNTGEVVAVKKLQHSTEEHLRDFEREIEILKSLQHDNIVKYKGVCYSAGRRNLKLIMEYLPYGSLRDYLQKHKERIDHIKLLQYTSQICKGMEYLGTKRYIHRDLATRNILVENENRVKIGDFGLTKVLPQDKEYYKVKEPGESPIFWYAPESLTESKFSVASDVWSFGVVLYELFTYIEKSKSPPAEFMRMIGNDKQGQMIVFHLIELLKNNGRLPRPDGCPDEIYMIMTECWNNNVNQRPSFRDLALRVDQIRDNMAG

[2] = target: T2, human JAK1 (a.a. 837-1142) (Homo sapiens, UniProt P23458); experiment: In vitro JAK kinase assay (HTRF, phosphorylation of a biotinylated peptide), JAK1; format: biochemical
T2 construct: human JAK1 (a.a. 837-1142); His tag (N); made in house; host or cells: insect cells (baculovirus)
T2 sequence (P23458 849-1154): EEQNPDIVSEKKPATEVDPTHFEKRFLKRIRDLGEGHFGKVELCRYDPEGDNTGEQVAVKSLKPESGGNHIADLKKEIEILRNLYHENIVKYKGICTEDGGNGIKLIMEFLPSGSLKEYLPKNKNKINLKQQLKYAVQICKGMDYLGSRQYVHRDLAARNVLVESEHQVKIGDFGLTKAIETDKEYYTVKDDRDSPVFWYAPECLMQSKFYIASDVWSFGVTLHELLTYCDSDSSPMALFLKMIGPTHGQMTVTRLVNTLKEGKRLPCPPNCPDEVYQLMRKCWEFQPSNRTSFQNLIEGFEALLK
In short: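 IC50s come from HTRF detection (Eu-Py20, SA-APC, 40 min binding) after 1 h RT reactions with 500 nM biotinylated peptide in Tris pH 7.8 buffer. ATP either 1 mM or Km-level, 90 μM for JAK1 and 30 μM for JAK2; enzymes are baculovirus-expressed His-tagged catalytic domains (JAK1 837-1142, JAK2 828-1132).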

[3] = Assay Conditions Km (ATP 90 μM for Jak1, 30 μM for Jak2)
[4] = Assay Conditions Km (ATP 90 μM for Jak1)

SMILES	JAK2/JAK1 IC50 ratio ([1]; Assay Conditions 1 mM ATP)	pIC50 ([2]; Assay Conditions 1 mM ATP)	JAK2/JAK1 IC50 ratio [1, 3]	pIC50 [2, 4]
N#CCC(C1CCN(c2ccc3c(n2)S(=O)(=O)CC3)C1)n1cc(-c2ncnc3[nH]ccc23)cn1 (single isomer, unassigned) [Example 30, 3-[1-(1,1-dioxido-2,3-dihydrothieno[2,3-b]pyridin-6-yl)pyrrolidin-3-yl]-3-[4-(7H-pyrrolo[2,3-d]pyrimidin-4-yl)-1H-pyrazol-1-yl]propanenitrile]	14.5	> 7.30	–	–
N#CC[C@@H]([C@H]1CCN(c2ncccc2C#N)C1)n1cc(-c2ncnc3[nH]ccc23)cn1 [Example 62, 2-((3S)-3-{(1S)-2-cyano-1-[4-(7H-pyrrolo[2,3-d]pyrimidin-4-yl)-1H-pyrazol-1-yl]ethyl}pyrrolidin-1-yl) nicotinonitrile trifluoroacetate salt]	7.1	> 7.30	–	–
N#CCC(C1CCN(c2nc(Br)cs2)C1)n1cc(-c2ncnc3[nH]ccc23)cn1 (centres unmarked) [Example 5, 3-[1-(4-bromo-1,3-thiazol-2-yl)pyrrolidin-3-yl]-3-[4-(7H-pyrrolo[2,3-d]pyrimidin-4-yl)-1H-pyrazol-1-yl]propanenitrile trifluoroacetate]	–	–	2.2	> 7.30
N#CCC(C1CCN(c2ncc3c(c2C#N)S(=O)(=O)CC3)C1)n1cc(-c2ncnc3[nH]ccc23)cn1 (single isomer, unassigned) [Example 172, 6-(3-{2-cyano-1-[4-(7H-pyrrolo[2,3-d]pyrimidin-4-yl)-1H-pyrazol-1-yl]ethyl}pyrrolidin-1-yl)-2,3-dihydrothieno[3,2-c]pyridine-7-carbonitrile 1,1-dioxide]	20.0	> 7.30	–	–
N#CC[C@@H]([C@H]1CCN(c2nccc(C(F)(F)F)c2F)C1)n1cc(-c2ncnc3[nH]ccc23)cn1 [Example 66, (3S)-3-{(3S)-1-[3-fluoro-4-(trifluoromethyl)pyridin-2-yl]pyrrolidin-3-yl}-3-[4-(7H-pyrrolo[2,3-d]pyrimidin-4-yl)-1H-pyrazol-1-yl] propanenitrile trifluoroacetate salt]	>20	> 7.30	–	–
N#CCC(C1CCN(c2nc3cc(F)ccc3o2)C1)n1cc(-c2ncnc3[nH]ccc23)cn1 (single isomer, unassigned) [Example 19, 3-[1-(5-fluoro-1,3-benzoxazol-2-yl)pyrrolidin-3-yl]-3-[4-(7H-pyrrolo[2,3-d]pyrimidin-4-yl)-1H-pyrazol-1-yl]propanenitrile]	5.3	> 7.30	–	–
N#CC[C@@H]([C@H]1CCN(c2ccnc(C#N)c2C#N)C1)n1cc(-c2ncnc3[nH]ccc23)cn1 [Example 124, 4-((3S)-3-{(1S)-2-cyano-1-[4-(7H-pyrrolo[2,3-d]pyrimidin-4-yl)-1H-pyrazol-1-yl]ethyl}pyrrolidin-1-yl)pyridine-2,3-dicarbonitrile trifluoroacetate]	>10.5	> 7.30	–	–
N#CCC(C1CCN(c2nc3cnccc3o2)C1)n1cc(-c2ncnc3[nH]ccc23)cn1 (single isomer, unassigned) [Example 11, 3-(1-[1,3]oxazolo[4,5-c]pyridin-2-ylpyrrolidin-3-yl)-3-[4-(7H-pyrrolo[2,3-d]pyrimidin-4-yl)-1H-pyrazol-1-yl]propanenitrile]	–	–	2.9	> 7.30
N#CCC(C1CCN(c2nc3ccccc3o2)C1)n1cc(-c2ncnc3[nH]ccc23)cn1 (single isomer, unassigned) [9, Step 3a]	–	–	1.9	> 7.30
Cc1cnc(N2CC[C@H]([C@H](CC#N)n3cc(-c4ncnc5[nH]ccc45)cn3)C2)c(C#N)n1 [Example 145, 3-((3S)-3-{(1S)-2-cyano-1-[4-(7H-pyrrolo[2,3-d]pyrimidin-4-yl)-1H-pyrazol-1-yl]ethyl}pyrrolidin-1-yl)-6-methylpyrazine-2-carbonitrile trifluoroacetate]	>11.1	> 7.30	–	–
N#CCC(C1CCN(c2nc3cc(Cl)ccc3o2)C1)n1cc(-c2ncnc3[nH]ccc23)cn1 (single isomer, unassigned) [Example 10, 3-[1-(5-chloro-1,3-benzoxazol-2-yl)pyrrolidin-3-yl]-3-[4-(7H-pyrrolo[2,3-d]pyrimidin-4-yl)-1H-pyrazol-1-yl]propanenitrile]	–	–	1.9	> 7.30
N#CC[C@@H]([C@H]1CCN(c2nccc(C(F)(F)F)c2C#N)C1)n1cc(-c2ncnc3[nH]ccc23)cn1 [Example 50, 2-((3S)-3-{(1S)-2-cyano-1-[4-(7H-pyrrolo[2,3-d]pyrimidin-4-yl)-1H-pyrazol-1-yl]ethyl}pyrrolidin-1-yl)-4-(trifluoromethyl)nicotinonitrile trifluoroacetate]	15.4	> 7.30	–	–
N#Cc1ccnc(N2CC[C@H](C(CF)n3cc(-c4ncnc5[nH]ccc45)cn3)C2)c1C#N (stereo partly drawn) [Example 120, 2-((3S)-3-(1-(4-(7H-pyrrolo[2,3-d]pyrimidin-4-yl)-1H-pyrazol-1-yl)-2-fluoroethyl)pyrrolidin-1-yl)pyridine-3,4-dicarbonitrile trifluoroacetate]	3.5	> 7.30	–	–
Cn1ccc2cnc(N3CCC(C(CC#N)n4cc(-c5ncnc6[nH]ccc56)cn4)C3)nc21 (single isomer, unassigned) [Example 17, 3-[1-(7-methyl-7H-pyrrolo[2,3-d]pyrimidin-2-yl)pyrrolidin-3-yl]-3-[4-(7H-pyrrolo[2,3-d]pyrimidin-4-yl)-1H-pyrazol-1-yl]propanenitrile]	8	6.30 to 7.00	–	–
Cc1ccnc(N2CC[C@H]([C@H](CC#N)n3cc(-c4ncnc5[nH]ccc45)cn3)C2)c1C#N [Example 100, 2-((S)-3-((S)-1-(4-(7H-pyrrolo[2,3-d]pyrimidin-4-yl)-1H-pyrazol-1-yl)-2-cyanoethyl)pyrrolidin-1-yl)-4-methylnicotinonitrile trifluoroacetate]	>7.4	> 7.30	–	–
N#CCC(C1CCN(c2cccc(Cl)n2)C1)n1cc(-c2ncnc3[nH]ccc23)cn1 (single isomer, unassigned) [2, Step 2b]	–	–	3.7	> 7.30
COCc1cnc(N2CC[C@H]([C@H](CC#N)n3cc(-c4ncnc5[nH]ccc45)cn3)C2)c(C#N)n1 [Example 141, 3-((3S)-3-{(1S)-2-cyano-1-[4-(7H-pyrrolo[2,3-d]pyrimidin-4-yl)-1H-pyrazol-1-yl]ethyl}pyrrolidin-1-yl)-6-(methoxymethyl)pyrazine-2-carbonitrile trifluoroacetate]	16.2	> 7.30	–	–
CC(F)c1ccnc(N2CC[C@H]([C@H](CC#N)n3cc(-c4ncnc5[nH]ccc45)cn3)C2)c1C#N (stereo partly drawn) [Example 136, 2-((3S)-3-{(1S)-2-cyano-1-[4-(7H-pyrrolo[2,3-d]pyrimidin-4-yl)-1H-pyrazol-1-yl]ethyl}pyrrolidin-1-yl)-4-(1-fluoroethyl)nicotinonitrile trifluoroacetate]	>5	> 7.30	–	–
N#Cc1cccc(N2CC[C@H](C(CF)n3cc(-c4ncnc5[nH]ccc45)cn3)C2)c1C#N (stereo partly drawn) [Example 121, 3-((3S)-3-{2-fluoro-1-[4-(7H-pyrrolo[2,3-d]pyrimidin-4-yl)-1H-pyrazol-1-yl]ethyl}pyrrolidin-1-yl)phthalonitrile trifluoroacetate]	4.4	> 7.30	–	–
N#CCC(C1CCN(c2nc3cc(F)cc(F)c3o2)C1)n1cc(-c2ncnc3[nH]ccc23)cn1 (single isomer, unassigned) [Example 22, 3-[1-(5,7-difluoro-1,3-benzoxazol-2-yl)pyrrolidin-3-yl]-3-[4-(7H-pyrrolo[2,3-d]pyrimidin-4-yl)-1H-pyrazol-1-yl]propanenitrile]	>7	> 7.30	–	–
N#CC[C@@H]([C@H]1CCN(c2c(F)cc(F)c(F)c2C#N)C1)n1cc(-c2ncnc3[nH]ccc23)cn1 [Example 61, 2-((3S)-3-{(1S)-2-cyano-1-[4-(7H-pyrrolo[2,3-d]pyrimidin-4-yl)-1H-pyrazol-1-yl]ethyl}pyrrolidin-1-yl)-3,5,6-trifluorobenzonitrile trifluoroacetate salt]	6.4	> 7.30	–	–
N#CC[C@@H]([C@H]1CCN(c2ncsc2C#N)C1)n1cc(-c2ncnc3[nH]ccc23)cn1 [Example 82, 4-(3-{2-cyano-1-[4-(7H-pyrrolo[2,3-d]pyrimidin-4-yl)-1H-pyrazol-1-yl]ethyl}pyrrolidin-1-yl)-1,3-thiazole-5-carbonitrile]	6.7	> 7.30	–	–
COCc1cccc(N2CC[C@H]([C@H](CC#N)n3cc(-c4ncnc5[nH]ccc45)cn3)C2)c1C#N [Example 112, 2-((S)-3-((S)-1-(4-(7H-pyrrolo[2,3-d]pyrimidin-4-yl)-1H-pyrazol-1-yl)-2-cyanoethyl)pyrrolidin-1-yl)-6-(methoxymethyl)benzonitrile]	35.7	> 7.30	–	–
CCCS(=O)(=O)c1ccc(F)c(N2CC[C@H]([C@H](CC#N)n3cc(-c4ncnc5[nH]ccc45)cn3)C2)n1 [Example 99, trifluoroacetate]	7.6	> 7.30	–	–
N#CCC(C1CCN(c2nc3cccc(OC(F)F)c3o2)C1)n1cc(-c2ncnc3[nH]ccc23)cn1 (single isomer, unassigned) [Example 164, 3-(4-(7H-pyrrolo[2,3-d]pyrimidin-4-yl)-1H-pyrazol-1-yl)-3-(1-(7-(difluoromethoxy)benzo[d]oxazol-2-yl)pyrrolidin-3-yl)propanenitrile]	10.9	> 7.30	–	–
